Read-outs that look alike come from different tables or passages of the source.
Key:
hOCT2 [1] = biological target: T1, hOCT2 (Homo sapiens, UniProt O15244); experiment: Inhibition of hOCT2-mediated 14C-metformin uptake in transfected HEK293 cells; assay type: cell-based; parameters: expressed in transfected cells; host or cells: HEK293 (stably transfected)
T1 sequence (O15244 1-555): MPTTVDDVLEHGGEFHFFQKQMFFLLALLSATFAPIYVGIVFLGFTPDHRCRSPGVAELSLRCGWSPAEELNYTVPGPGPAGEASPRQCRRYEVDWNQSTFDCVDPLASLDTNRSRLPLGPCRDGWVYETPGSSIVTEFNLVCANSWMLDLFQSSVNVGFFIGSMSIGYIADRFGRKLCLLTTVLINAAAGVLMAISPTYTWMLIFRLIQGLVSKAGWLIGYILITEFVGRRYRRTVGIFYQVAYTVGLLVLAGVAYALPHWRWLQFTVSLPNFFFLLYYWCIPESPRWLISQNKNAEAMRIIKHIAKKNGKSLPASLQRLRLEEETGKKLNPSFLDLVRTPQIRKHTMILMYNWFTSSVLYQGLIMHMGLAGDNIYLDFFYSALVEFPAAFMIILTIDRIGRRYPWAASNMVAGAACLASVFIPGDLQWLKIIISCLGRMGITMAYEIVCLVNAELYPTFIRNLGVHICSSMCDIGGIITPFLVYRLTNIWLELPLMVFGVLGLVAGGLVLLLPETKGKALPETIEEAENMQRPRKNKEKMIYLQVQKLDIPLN
Description: (§1) The uptake assays were performed as previously described in 24-well plates. […] After incubation, the uptake was stopped by aspirating the reaction mixture and washing the cells three times with 0.4 mL ice-cold PBS buffer. Cells were then solubilized with 0.6 mL of 1 N NaOH, overnight. The whole content of each well (0.6 mL) was transferred to a scintillation vial (Perkin Elmer). The radio-labelled amount was determined by liquid scintillation counting.
(§2) All inhibition experiments were conducted on at least two separate days in triplicate.
(§3) For screening experiments, cis-inhibition was carried out in duplicate by measuring the uptake of the labeled probe substrate in the absence and presence of 10 µM or 100 µM of the respective pesticide or drug. […] Inhibitory effects in percent were calculated from net-uptake. […]

mOct2 [2] = biological target: T2, mOct2 (Mus musculus, UniProt O70577); experiment: Inhibition of mOct2-mediated 14C-metformin uptake in transfected HEK293 cells; assay type: cell-based; parameters: expressed in transfected cells; host or cells: HEK293 (stably transfected)
T2 sequence (O70577 1-553): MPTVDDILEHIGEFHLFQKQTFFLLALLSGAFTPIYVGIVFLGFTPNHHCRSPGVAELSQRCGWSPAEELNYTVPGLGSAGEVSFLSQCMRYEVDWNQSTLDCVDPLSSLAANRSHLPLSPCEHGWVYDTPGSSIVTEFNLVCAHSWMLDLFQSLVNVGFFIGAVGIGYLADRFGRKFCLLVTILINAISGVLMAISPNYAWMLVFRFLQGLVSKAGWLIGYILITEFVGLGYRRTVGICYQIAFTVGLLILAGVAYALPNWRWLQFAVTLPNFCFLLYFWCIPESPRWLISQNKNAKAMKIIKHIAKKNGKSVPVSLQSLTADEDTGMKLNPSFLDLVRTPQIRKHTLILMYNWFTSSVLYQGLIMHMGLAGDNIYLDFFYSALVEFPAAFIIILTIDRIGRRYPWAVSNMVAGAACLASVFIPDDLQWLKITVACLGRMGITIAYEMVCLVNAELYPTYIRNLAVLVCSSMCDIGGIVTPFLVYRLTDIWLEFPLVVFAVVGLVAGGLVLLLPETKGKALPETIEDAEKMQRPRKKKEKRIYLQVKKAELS
Description: as §1, §2, §3

hOCT2 [3] = biological target: T1, hOCT2; experiment: Inhibition of hOCT2-mediated 3H-MPP uptake in transfected HEK293 cells; assay type: cell-based; parameters: expressed in transfected cells; host or cells: HEK293 (stably transfected)
Description: (§4) With cDNA of hOCT2 (GeneBank: accession number: NM_003058.3) or mOct2 (NM_013667.2), stably overexpressing HEK293 cells were used for the experiments and empty vector-transfected HEK cells were used as control-HEK cells.
(§5) The uptake assays were performed as previously described in 24-well plates. Therefore, culture medium was aspirated, and each well was rinsed three times with 0.5 mL incubation buffer (HBSS supplemented with 20 mM HEPES, pH 7.4) and then incubated in 200 µL dosing solution containing ^3H-MPP or ^14C-metformin and the test compound. After incubation, the uptake was stopped by aspirating the reaction mixture and washing the cells three times with 0.4 mL ice-cold PBS buffer. Cells were then solubilized with 0.6 mL of 1 N NaOH, overnight. The whole content of each well (0.6 mL) was transferred to a scintillation vial (Perkin Elmer). The radio-labelled amount was determined by liquid scintillation counting.
(§6) […]. All inhibition experiments were conducted on at least two separate days in triplicate.
(§7) The Km and Vmax values were obtained using SigmaPlot version 13 by fitting the Michaelis–Menten equation V = Vmax*[S]/(Km + [S]), where V refers to the rate of substrate transport, Vmax refers to the maximum rate of substrate transport, [S] refers to the concentration of substrate, and Km is defined as the concentration of substrate at the half-maximal transport rate.

mOct2 [4] = biological target: T2, mOct2; experiment: Inhibition of mOct2-mediated 3H-MPP uptake in transfected HEK293 cells; assay type: cell-based; parameters: expressed in transfected cells; host or cells: HEK293 (stably transfected)
Description: as §4, §5, §6, §7

[5] = substrate: C[n+]1ccc(-c2ccccc2)cc1; experiment: cells, lysate or membranes; conditions: other: substrate, metformin 2 min, MPP 1 min, 37 °C, pH 7.4
[6] = HEK293, 10 µM test compound; 1 µM [14C]metformin, 2 min, HEK293; negative = stimulation; read-out: Inhibitory Effects (%) hOCT2 10 µM Mean
[7] = HEK293, 100 µM test compound; 1 µM [14C]metformin, 2 min, HEK293; negative = stimulation; read-out: Inhibitory Effects (%) hOCT2 100 µM Mean
[8] = HEK293, 10 µM test compound; 1 µM [14C]metformin, 2 min, HEK293; negative = stimulation; read-out: Inhibitory Effects (%) mOct2 10 µM Mean
[9] = HEK293, 100 µM test compound; 1 µM [14C]metformin, 2 min, HEK293; negative = stimulation; read-out: Inhibitory Effects (%) mOct2 100 µM Mean
[10] = HEK293; read-out: Inhibitory Effects (%) mOct2 10 µM Mean
[11] = HEK293; read-out: Inhibitory Effects (%) mOct2 100 µM Mean
[12] = 10 µM test compound; 1 µM [14C]metformin, 2 min, HEK293; negative = stimulation
[13] = HEK293; read-out: Inhibitory Effects (%) hOCT2 10 µM Mean
[14] = HEK293; read-out: Inhibitory Effects (%) hOCT2 100 µM Mean
[15] = HEK293, read-out: Inhibitory Effects (%) hOCT2 10 µM Mean
[16] = HEK293, read-out: Inhibitory Effects (%) hOCT2 100 µM Mean
[17] = HEK293, read-out: Inhibitory Effects (%) mOct2 10 µM Mean
[18] = HEK293, read-out: Inhibitory Effects (%) mOct2 100 µM Mean
[19] = 100 µM test compound; 1 µM [14C]metformin, 2 min, HEK293; negative = stimulation

Molecule: CCCCc1oc2ccccc2c1C(=O)c1cc(I)c(OCCN(CC)CC)c(I)c1 [Amiodarone]
- inhibition at 10 µM (hOCT2 [1]; [6]): -10%
- inhibition at 100 µM (hOCT2 [1]; [7]): -27%
- inhibition at 10 µM (mOct2 [2]; [8]): -7%
- inhibition at 100 µM (mOct2 [2]; [9]): 4%

Molecule: COC(=O)[C@H]1[C@H]2C[C@@H]3c4[nH]c5cc(OC)ccc5c4CCN3C[C@H]2C[C@@H](OC(=O)c2cc(OC)c(OC)c(OC)c2)[C@@H]1OC [Reserpine]
- inhibition at 10 µM (hOCT2 [1]; [6]): -13%
- inhibition at 100 µM (hOCT2 [1]; [7]): -27%
- inhibition at 10 µM (mOct2 [2]; [10]): -27%
- inhibition at 100 µM (mOct2 [2]; [11]): -19%

Molecule: CCCOC(=O)NCCCN(C)C [Propamocarb]
- Inhibitory Effects (%) hOCT2 10 µM Mean (hOCT2 [1]; [12]): negligible
- inhibition at 10 µM (hOCT2 [1]; [13]): 1%
- inhibition at 100 µM (hOCT2 [1]; [14]): 55%
- Inhibitory Effects (%) mOct2 10 µM Mean (mOct2 [2]; [12]): negligible
- inhibition at 10 µM (mOct2 [2]; [10]): -9%
- inhibition at 100 µM (mOct2 [2]; [11]): 48%

Molecule: C=CCOC(Cn1ccnc1)c1ccc(Cl)cc1Cl (centres unmarked) [Imazalil]
- IC50 (hOCT2 [1]): 4.7 µM
- inhibition at 10 µM (hOCT2 [1]; [15]): 52%
- inhibition at 100 µM (hOCT2 [1]; [16]): 93%
- IC50 (mOct2 [2]): 0.58 µM
- inhibition at 10 µM (mOct2 [2]; [17]): 83%
- inhibition at 100 µM (mOct2 [2]; [18]): 97%
- Fold higher inhibitory potency to mouse than to human OCT2 (IC50 ratio) (mOct2 [2]; metformin as substrate): 8 fold
- IC50 (hOCT2 [3]): 51 ± 16 µM
- Fold higher IC50 for hOCT2 than for mOct2 (hOCT2 [3]; MPP as substrate): 2 fold
- IC50 (mOct2 [4]): 23 ± 6 µM

Molecule: CCCN(CCOc1c(Cl)cc(Cl)cc1Cl)C(=O)n1ccnc1 [Prochloraz]
- inhibition at 10 µM (hOCT2 [1]; [15]): -43%
- inhibition at 100 µM (hOCT2 [1]; [16]): -17%
- inhibition at 10 µM (mOct2 [2]; [17]): -13%
- inhibition at 100 µM (mOct2 [2]; [18]): 10%

Molecule: CCNc1nc(Cl)nc(NC(C)C)n1 [Atrazin]
- inhibition at 10 µM (hOCT2 [1]; [15]): -57%
- inhibition at 100 µM (hOCT2 [1]; [16]): -53%
- inhibition at 10 µM (mOct2 [2]; [17]): -44%
- inhibition at 100 µM (mOct2 [2]; [18]): -27%

Molecule: O[C@@H](COc1cccc2ncccc12)CN1CCN([C@@H]2c3ccccc3[C@@H]3[C@H](c4ccccc42)C3(F)F)CC1 [Zosuquidar]
- inhibition at 10 µM (hOCT2 [1]; [6]): -10%
- inhibition at 100 µM (hOCT2 [1]; [7]): -47%
- inhibition at 10 µM (mOct2 [2]; [8]): -11%
- inhibition at 100 µM (mOct2 [2]; [9]): -30%

Molecule: O=[N+]([O-])NC1=NCCN1Cc1ccc(Cl)nc1 [Imidacloprid]
- inhibition at 10 µM (hOCT2 [1]; [15]): -74%
- inhibition at 100 µM (hOCT2 [1]; [16]): -43%
- inhibition at 10 µM (mOct2 [2]; [17]): -52%
- inhibition at 100 µM (mOct2 [2]; [18]): -29%

Molecule: CN/C(=N/CCSCc1nc[nH]c1C)NC#N [Cimetidine]
- inhibition at 10 µM (hOCT2 [1]; [6]): -50%
- inhibition at 100 µM (hOCT2 [1]; [7]): -17%
- inhibition at 10 µM (mOct2 [2]; [8]): -42%
- inhibition at 100 µM (mOct2 [2]; [9]): 24%

Molecule: C=C[C@H]1C[N@@]2CC[C@H]1C[C@@H]2[C@@H](O)c1ccnc2ccc(OC)cc12 [Quinidine]
- inhibition at 10 µM (hOCT2 [1]; [13]): -50%
- inhibition at 100 µM (hOCT2 [1]; [14]): -31%
- inhibition at 10 µM (mOct2 [2]; [8]): -38%
- inhibition at 100 µM (mOct2 [2]; [9]): -28%

Molecule: COc1ccc(CCN(C)CCCC(C#N)(c2ccc(OC)c(OC)c2)C(C)C)cc1OC (centres unmarked) [Verapamil]
- inhibition at 10 µM (hOCT2 [1]; [15]): -8%
- inhibition at 100 µM (hOCT2 [1]; [16]): 44%
- inhibition at 10 µM (mOct2 [2]; [17]): 23%
- inhibition at 100 µM (mOct2 [2]; [18]): 73%

Molecule: CO/C=C(/C(=O)OC)c1ccccc1Oc1cc(Oc2ccccc2C#N)ncn1 [Azoxystrobin]
- Inhibitory Effects (%) hOCT2 10 µM Mean (hOCT2 [1]; [12]): −40%
- Inhibitory Effects (%) hOCT2 100 µM Mean (hOCT2 [1]; [19]): −14%
- Inhibitory Effects (%) mOct2 10 µM Mean (mOct2 [2]; [12]): −6%
- Inhibitory Effects (%) mOct2 100 µM Mean (mOct2 [2]; [19]): −17%

Molecule: O=C(O)CNCP(=O)(O)O [Glyphosat]
- inhibition at 10 µM (hOCT2 [1]; [15]): -24%
- inhibition at 100 µM (hOCT2 [1]; [16]): -48%
- inhibition at 10 µM (mOct2 [2]; [17]): -13%
- inhibition at 100 µM (mOct2 [2]; [18]): -31%

Molecule: Cc1ccc(/N=C/N(C)/C=N/c2ccc(C)cc2C)c(C)c1 [Amitraz]
- inhibition at 10 µM (hOCT2 [1]; [15]): -98%
- inhibition at 100 µM (hOCT2 [1]; [16]): -96%
- inhibition at 10 µM (mOct2 [2]; [17]): -33%
- inhibition at 100 µM (mOct2 [2]; [18]): -12%

B1: hOCT2 (Homo sapiens) (protein)
chain: MPTTVDDVLEHGGEFHFFQKQMFFLLALLSATFAPIYVGIVFLGFTPDHRCRSPGVAELSLRCGWSPAEELNYTVPGPGPAGEASPRQCRRYEVDWNQSTFDCVDPLASLDTNRSRLPLGPCRDGWVYETPGSSIVTEFNLVCANSWMLDLFQSSVNVGFFIGSMSIGYIADRFGRKLCLLTTVLINAAAGVLMAISPTYTWMLIFRLIQGLVSKAGWLIGYILITEFVGRRYRRTVGIFYQVAYTVGLLVLAGVAYALPHWRWLQFTVSLPNFFFLLYYWCIPESPRWLISQNKNAEAMRIIKHIAKKNGKSLPASLQRLRLEEETGKKLNPSFLDLVRTPQIRKHTMILMYNWFTSSVLYQGLIMHMGLAGDNIYLDFFYSALVEFPAAFMIILTIDRIGRRYPWAASNMVAGAACLASVFIPGDLQWLKIIISCLGRMGITMAYEIVCLVNAELYPTFIRNLGVHICSSMCDIGGIITPFLVYRLTNIWLELPLMVFGVLGLVAGGLVLLLPETKGKALPETIEEAENMQRPRKNKEKMIYLQVQKLDIPLN
- Km [5]: 62 µM
